How the values were obtained:
RD-ES cells [1] = test: PARP cleavage immunoblot (apoptosis); type: cell-based; conditions: 100 nM
Procedure: (§1) FIG. 4A-4B. Altertoxin II selectively induces PARP cleavage in EWS cell lines. Immunoblotting for total and cleaved PARP. (A) Two Ewing sarcoma (EWS) cell lines, RD-ES and SK-ES-1, were treated with 100 nM altertoxin II (ATX) for the indicated amounts of time. Whole-cell lysates were prepared and separated by SDS-PAGE. (B) The EWS cell line SK-ES-1 and rhabdomysosarcoma cell line A204 were treated with the indicated concentrations of ATX for 18 hours, lysed and separated by SDS-PAGE.
(§2) The ability of altertoxin II to initiate cell death via apoptosis, as measured by PARP cleavage, was evaluated in two Ewing sarcoma cells lines, SK-ES-1 and RD-ES. […] A range of altertoxin II concentrations when then evaluated in SK-ES-1 Ewing sarcoma cells as compared to A204 rhabdomyosarcoma cells.

[2] = system: A204 rhabdomyosarcoma cells; test: PARP cleavage immunoblot (apoptosis); type: cell-based; conditions: 100 nM and 1 μM, 18 hours
Procedure: as §1, §2

SK-ES-1 cells = test: PARP cleavage immunoblot (apoptosis); type: cell-based
Procedure: as §1, §2

TC-32 cells [3] = test: R-loop marker S9.6 immunofluorescence; type: cell-based; conditions: TC-32 nuclei, 24 h
Procedure: (§3) FIG. 8A-8B. The effects of 10 and 100 nM altertoxin II (ATXII) on 53BP1 foci were evaluated following a 6 h treatment of A673 cells by indirect immunofluorescence. (B) Immunofluorescence of R-loop marker S9.6 in TC-32 cells 24 h after ATXII treatment. Arrows indicate R-loops within nuclei.
(§4) Multiple investigators have shown that Ewing sarcoma cells undergo replication stress and R-loop accumulation.

Ewing sarcoma cells = test: Panel of 5 pediatric cancer cell lines, selective cytotoxicity; type: cell-based; conditions: 5 types of solid pediatric cancers
A673 Ewing sarcoma cells [4] = test: DNA damage response immunoblot (Chk1, Chk2); type: cell-based; conditions: 10-300 nM, within 6 h
Procedure: (§5) FIG. 9A-9B. Altertoxin II causes phosphorylation of CHK1 and 2 and p53 in Ewing sarcoma cells. Ewing sarcoma cells, A673, RD-ES, SK-ES-1, or rhabdomyosarcoma A204 cells were treated with altertoxin II at the concentrations indicated for 6 h (A) or 24 h (B) and whole-cell lysates prepared and proteins separated by SDS-PAGE. These samples were analyzed by immunoblotting for total and phosphorylated Chk1 and 2 and p53 (A).
(§6) Downstream activation of DNA damage response proteins by altertoxin II was subsequently evaluated.

[5] = system: A204 rhabdomyosarcoma cells; test: DNA damage response immunoblot (Chk1); type: cell-based; conditions: concentrations up to 1 μM
Procedure: as §5, §6

[6] = system: SK-ES-1 Ewing sarcoma cells; test: DNA damage response immunoblot (Chk1); type: cell-based; conditions: 100 nM and 1 μM, 24 h
Procedure: as §5, §6

A204 = test: SRB assay, growth inhibition; type: cell-based; conditions: A204, RMS
Procedure: (§7) FIG. 3A-3B. (A) The effects of altertoxin II were evaluated using the SRB assay in 6 Ewing sarcoma cell lines as compared to 4 other pediatric solid tumor cells lines. n≥3 independent experiments. (B) The effects of altertoxin II were evaluated by the Houghton laboratory using the alamar blue assay in an additional 6 Ewing sarcoma cell lines and potency compared to the activities in 5 rhabdomyosarcoma cell lines. n=3 independent experiments.
(§8) The effects of altertoxin II were studied in a larger panel of cell lines and the GI50, the concentration that causes 50% inhibition of cell growth, and the TGI, the concentration that caused total growth inhibition, were determined using the sulforhodamine b (SRB assay). The mean GI50 values shown graphically in FIG. 3A. The IC50, the concentration that causes 50% inhibition of cell proliferation, values were determined in a second panel of Ewing sarcoma and rhabdomyosarcoma cell lines using the altar blue assay and these values are presented in Table 2 and the mean in […].

D283 = test: SRB assay, growth inhibition; type: cell-based; conditions: D283, Med
Procedure: as §7, §8

A673 = test: SRB assay, growth inhibition; type: cell-based; conditions: A673, EWS
Procedure: as §7, §8

SH-SY-5Y = test: SRB assay, growth inhibition; type: cell-based; conditions: NB
Procedure: as §7, §8

SK-N-BE2 = test: SRB assay, growth inhibition; type: cell-based
Procedure: as §7, §8

SK-ES-1 = test: SRB assay, growth inhibition; type: cell-based
Procedure: as §7, §8

RD-ES = test: SRB assay, growth inhibition; type: cell-based; conditions: EWS
Procedure: as §7, §8

Ewing sarcoma cell lines = test: SRB assay panel, selectivity Ewing sarcoma vs other pediatric solid tumor cell lines; type: cell-based; conditions: mean GI50, 6 Ewing sarcoma cell lines
Procedure: as §7, §8

RD-ES cells [7] = test: G1 arrest with CDK4/6 inhibitor and SRB concentration-response; type: cell-based; conditions: RD-ES pre-treated with LSN2813542 (100 nM); SRB assay
Procedure: FIG. 6. Concentration-response curves for altertoxin II (ATX) with and without pre-treatment with the CDK4/6 inhibitor LSN2813542 (100 nM) using the SRB assay, n=3.
An experiment was designed to evaluate whether the effects of altertoxin II in Ewing sarcoma cells required cell cycle transition. RD-ES cells were arrested in the G1 phase of the cell cycle using the CDK4/6 inhibitor LSN2813542. LSN2813542 (100 nM) had no effect on RD-ES cell viability, but caused greater than 85% of the cells to arrest in G1 for at least 48 h. The arrested cells were then treated with altertoxin II and a concentration-response curve generated.

[8] = system: HepG2 hepatocellular carcinoma cells; test: Altertoxin II concentration in cell media by LC/MS; type: in vitro ADME; conditions: after 2 h
Procedure: (§9) An experiment was conducted to test this possibility. TC-32 Ewing sarcoma and Rh30 rhabdomyosarcoma cells were treated with 100 nM ATX for 6 h and the conditioned media was then applied to the resistant Rh30 cells. […] Differences in the altertoxin II concentration were measured by LC/MS in media from TC-32 and HepG2 hepatocellular carcinoma cells.

TC-32 cells [9] = test: Altertoxin II concentration in cell media by LC/MS; type: in vitro ADME; conditions: TC-32 media, after 2 h
Procedure: as §9

A673 Ewing sarcoma cells [10] = test: 53BP1 foci immunofluorescence; type: cell-based; conditions: 10 nM and 100 nM, within 6 h
Procedure: as §3, §4

Structure (SMILES): O=C1CC[C@]2(O)c3c(ccc(O)c31)-c1ccc(O)c3c1[C@H]2[C@H]1O[C@H]1C3=O [altertoxin II]
- time to appearance of cleaved PARP (RD-ES cells [1]): ≤ 17 h
- apoptosis (PARP cleavage) [2]: not the rhabdomyosarcoma cells
- apoptosis (PARP cleavage) (SK-ES-1 cells; 100 nM and 1 μM, 18 hours): cause apoptosis
- time to appearance of cleaved PARP (SK-ES-1 cells; 100 nM, seen at 7 and 17 hours): ≤ 7 h
- R-loop formation (S9.6 marker) (TC-32 cells [3]): increased formation of R-loops
- selective cytotoxic activity against Ewing sarcoma cells (Ewing sarcoma cells): potent, Ewing sarcoma-specific effects
- phosphorylation of Chk1 and Chk2 (A673 Ewing sarcoma cells [4]): caused phosphorylation of checkpoint kinase 1 and 2
- Chk1 phosphorylation [5]: Chk1 phosphorylation was not observed
- Chk1 phosphorylation [6]: Chk1 phosphorylation was also observed
- TGI (A204): 1500 nM
- GI50 (A204; Homo sapiens): 960 nM
- GI50 (D283): 940 nM
- TGI (D283): 1700 nM
- TGI (A673): 139 nM
- GI50 (A673; Homo sapiens): 28 nM
- GI50 (SH-SY-5Y; Homo sapiens, SH-SY5Y): 560 nM
- TGI (SH-SY-5Y): 920 nM
- GI50 (SK-N-BE2; Homo sapiens, SKNBE2, SK-N-BE2, NB): 1000 nM
- TGI (SK-N-BE2; SK-N-BE2, NB): 2000 nM
- GI50 (SK-ES-1; Homo sapiens, SK-ES1, SK-ES-1, EWS): 35 nM
- TGI (SK-ES-1; SK-ES-1, EWS): 151 nM
- GI50 (RD-ES; n ≥ 3): 14 nM
- TGI (RD-ES; total growth inhibitory concentration): 60 nM
- selectivity of Ewing sarcoma cell lines vs other pediatric solid tumor cell lines (Ewing sarcoma cell lines): 58 fold
- increase in total growth inhibition concentration (TGI) after G1 arrest (RD-ES cells [7]): 28 fold
- altertoxin II remaining in media [8]: no altertoxin II was detectable
- altertoxin II remaining in media (TC-32 cells [9]): approximately 25%
- 53BP1 foci (A673 Ewing sarcoma cells [10]): nuclear foci were noted

Source: US10874631B2, “Altertoxin II as a selective inhibitor of Ewing family of tumor cells” (priority 2016, dated 2020)
